Measurements reported in ChEMBL document CHEMBL1201862, “PubChem BioAssay data set” (2004).
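Test compounds were applied to cells in 96-well plates for 48 hours at 5 doses. GI50 = concentration required for 50% inhibition of growth.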 Activity calls are given as the source filed them. Cut-off read from the data, not from the text of the source: active = GI50 up to about 1.1 µM and inactive = higher.

Columns and labels:
Assay in all cases: inhibition of tumour cell growth, NCI panel, 48 h
[1] = tested on: MDA-MB-435
[2] = tested on: COLO 205
[3] = tested on: SK-MEL-2
[4] = tested on: HOP-62
[5] = tested on: ACHN
[6] = tested on: TK-10
[7] = tested on: K562
[8] = tested on: SK-OV-3
[9] = tested on: SN12C
[10] = tested on: OVCAR-5
[11] = tested on: SW-620
[12] = tested on: CAKI-1
[13] = tested on: M14
[14] = tested on: OVCAR-3
[15] = tested on: SF-268
[16] = tested on: SF-539
[17] = tested on: UACC-62
[18] = tested on: EKVX
[19] = tested on: HCC 2998
[20] = tested on: NCI/ADR-RES
[21] = tested on: CCRF-CEM
[22] = tested on: NCI-H460
[23] = tested on: HOP-92
[24] = tested on: OVCAR-4
[25] = tested on: U-251
[26] = tested on: BT-549
[27] = tested on: SF-295
[28] = tested on: SK-MEL-28
[29] = tested on: IGROV-1
[30] = tested on: PC-3
[31] = tested on: RPMI-8226
[32] = tested on: MOLT-4
[33] = tested on: T47D
[34] = tested on: DU-145
[35] = tested on: HT-29
[36] = tested on: UACC-257
[37] = tested on: MDA-MB-231
[38] = tested on: HCT-116
[39] = tested on: KM12
[40] = tested on: NCI-H23
[41] = tested on: UO-31
[42] = tested on: MCF7
[43] = tested on: LOX IMVI
[44] = tested on: A549
[45] = tested on: MDA-N
[46] = tested on: OVCAR-8
[47] = tested on: SNB-19
[48] = tested on: SNB-75
[49] = tested on: RXF 393
[50] = tested on: NCI-H226

Measured: GI50

COc1cc(C(O)(CC#N)c2cc3c(cc2Br)OCO3)cc(OC)c1OC (stereo not given)
inactive: [1] 3 µM | [2] 37.6 µM | [3] 47 µM | [4] 1.63 µM | [5] 92.7 µM | [6] 42.8 µM | [7] 48 µM | [8] 24.4 µM | [9] > 100 µM | [10] 17.4 µM | [11] 40.3 µM | [12] 29.1 µM | [13] 4.62 µM | [14] 18 µM | [15] 28.2 µM | [16] 8.05 µM | [17] 24.9 µM | [18] 54.1 µM | [19] 24 µM | [20] 40 µM | [21] 43.2 µM | [22] 18.8 µM | [23] > 100 µM | [24] > 100 µM | [25] 28.6 µM | [26] > 100 µM | [27] 16.3 µM | [28] 23.4 µM | [29] 20.9 µM | [30] 28.1 µM | [31] 50.7 µM | [32] 56 µM | [33] > 100 µM | [34] 33.5 µM | [35] 25.4 µM | [36] 27.9 µM | [37] 21.4 µM | [38] 40.6 µM | [39] 21 µM | [40] 51.9 µM | [41] 57.5 µM | [42] 14.7 µM | [43] 31.3 µM | [44] 22.9 µM | [45] 5.07 µM | [46] 44.9 µM | [47] 27.1 µM | [48] 65.3 µM | [49] 17.2 µM | [50] 30.8 µM
